Each block holds one molecule with its values, some of them ahead of it.
What was measured:
[1] = biological target: Programmed cell death protein 1/Programmed cell death 1 ligand 1 (Homo sapiens, UniProt Q15116+Q9NZQ7); experiment: Inhibition of PD-1/PDL1 interaction (unknown origin) in by HTRF assay; assay type: protein-complex assay
[2] = Inhibition of LSD1/HDAC1/CoREST complex (unknown origin) using Boc-(Ac)Lys-AMC as substrate measured after 20 mins by fluorescence based analysis; set-up: species or system Homo sapiens
[3] = Inhibition of LSD1/HDAC2/CoREST complex (unknown origin) using Boc-(Ac)Lys-AMC as substrate measured after 20 mins by fluorescence based analysis; set-up: species or system Homo sapiens
[4] = Inhibition of LSD1/HDAC3/CoREST complex (unknown origin) using Boc-(Ac)Lys-AMC as substrate measured after 20 mins by fluorescence based analysis; set-up: species or system Homo sapiens
[5] = biological target: T1, von Hippel-Lindau disease tumor suppressor/Histone deacetylase 1 (Homo sapiens, UniProt Q13547+P40337); experiment: PROTAC activity at VHL/HDAC1 in human HCT-116 cells assessed as degradation of HDAC1 incubated for 24 hrs by Western blot analysis; assay type: cell-based
[6] = biological target: T2, von Hippel-Lindau disease tumor suppressor/Histone deacetylase 2 (Homo sapiens, UniProt Q92769+P40337); experiment: PROTAC activity at VHL/HDAC2 in human HCT-116 cells assessed as degradation of HDAC2 incubated for 24 hrs by Western blot analysis; assay type: cell-based
[7] = biological target: T3, von Hippel-Lindau disease tumor suppressor/Histone deacetylase 3 (Homo sapiens, UniProt O15379+P40337); experiment: PROTAC activity at VHL/HDAC3 in human HCT-116 cells assessed as degradation of HDAC3 incubated for 24 hrs by Western blot analysis; assay type: cell-based
[8] = biological target: T3, von Hippel-Lindau disease tumor suppressor/Histone deacetylase 3; experiment: Protac activity at VHL/HDAC3 in human MDA-MB-468 cells assessed as HDAC3 degradation measured after 14 hrs by Western blot analysis; assay type: cell-based
MDA-MB-468 = experiment: Antiproliferative activity against human MDA-MB-468 cells; assay type: functional, cell-based
[9] = biological target: Protein cereblon/Histone deacetylase 8 (Homo sapiens, UniProt Q9BY41+Q96SW2); experiment: PROTAC activity at CRBN/HDAC8 in human Jurkat T cells assessed as induction of degradation of HDAC8 by Western blot analysis; assay type: cell-based
[10] = biological target: T1, von Hippel-Lindau disease tumor suppressor/Histone deacetylase 1; experiment: PROTAC activity at VHL/HDAC1 in human HCT-116 cells assessed as degradation of HDAC1 incubated for 24 hrs by immunoblot analysis; assay type: cell-based
[11] = biological target: T1, von Hippel-Lindau disease tumor suppressor/Histone deacetylase 1; experiment: PROTAC activity at VHL/HDAC1 in human HCT-116 cells assessed as degradation of HDAC1 by measuring maximum efficacy incubated for 24 hrs by immunoblot analysis relative to control; assay type: cell-based
[12] = biological target: T2, von Hippel-Lindau disease tumor suppressor/Histone deacetylase 2; experiment: PROTAC activity at VHL/HDAC2 in human HCT-116 cells assessed as degradation of HDAC2 by measuring maximum efficacy incubated for 24 hrs by immunoblot analysis relative to control; assay type: cell-based
[13] = biological target: T4, Protein cereblon/Protein deacetylase HDAC6 (Homo sapiens, UniProt Q9UBN7+Q96SW2); experiment: PROTAC activity at CRBN/HDAC6 in human MM1.S cells assessed as induction of degradation of HDAC6; assay type: cell-based
Target sequence in this assay (Q9UBN7 whole entry): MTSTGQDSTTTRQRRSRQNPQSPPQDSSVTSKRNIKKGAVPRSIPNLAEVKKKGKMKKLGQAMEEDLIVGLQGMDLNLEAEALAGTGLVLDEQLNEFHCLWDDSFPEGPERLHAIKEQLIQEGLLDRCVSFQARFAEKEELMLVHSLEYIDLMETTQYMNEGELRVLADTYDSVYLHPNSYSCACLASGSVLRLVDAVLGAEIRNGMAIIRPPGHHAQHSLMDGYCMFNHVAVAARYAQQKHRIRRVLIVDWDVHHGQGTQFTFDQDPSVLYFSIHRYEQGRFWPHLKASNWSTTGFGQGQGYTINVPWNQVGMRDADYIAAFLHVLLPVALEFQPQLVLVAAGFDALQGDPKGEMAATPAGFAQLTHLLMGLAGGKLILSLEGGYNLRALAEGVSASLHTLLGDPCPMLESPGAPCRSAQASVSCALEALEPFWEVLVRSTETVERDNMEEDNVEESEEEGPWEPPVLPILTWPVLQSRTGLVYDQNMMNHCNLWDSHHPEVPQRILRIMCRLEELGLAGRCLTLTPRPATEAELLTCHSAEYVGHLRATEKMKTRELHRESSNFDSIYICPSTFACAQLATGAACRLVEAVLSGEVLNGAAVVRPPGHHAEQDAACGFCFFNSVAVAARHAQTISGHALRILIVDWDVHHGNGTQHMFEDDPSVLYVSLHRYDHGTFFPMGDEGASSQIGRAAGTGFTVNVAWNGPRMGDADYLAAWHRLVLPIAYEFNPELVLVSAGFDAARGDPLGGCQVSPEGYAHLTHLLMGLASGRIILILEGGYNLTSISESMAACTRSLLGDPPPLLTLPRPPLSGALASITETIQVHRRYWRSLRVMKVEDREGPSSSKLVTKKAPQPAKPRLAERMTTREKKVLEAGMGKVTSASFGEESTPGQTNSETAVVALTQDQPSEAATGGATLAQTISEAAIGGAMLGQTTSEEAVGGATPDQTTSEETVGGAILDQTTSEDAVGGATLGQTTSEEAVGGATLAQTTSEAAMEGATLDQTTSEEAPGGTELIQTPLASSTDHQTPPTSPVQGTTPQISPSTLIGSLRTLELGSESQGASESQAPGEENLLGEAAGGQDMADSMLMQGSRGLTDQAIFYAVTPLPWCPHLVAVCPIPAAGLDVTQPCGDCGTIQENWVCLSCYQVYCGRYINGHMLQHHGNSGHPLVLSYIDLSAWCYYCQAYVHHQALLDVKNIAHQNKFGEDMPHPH
Target sequence in this assay (Q96SW2 whole entry): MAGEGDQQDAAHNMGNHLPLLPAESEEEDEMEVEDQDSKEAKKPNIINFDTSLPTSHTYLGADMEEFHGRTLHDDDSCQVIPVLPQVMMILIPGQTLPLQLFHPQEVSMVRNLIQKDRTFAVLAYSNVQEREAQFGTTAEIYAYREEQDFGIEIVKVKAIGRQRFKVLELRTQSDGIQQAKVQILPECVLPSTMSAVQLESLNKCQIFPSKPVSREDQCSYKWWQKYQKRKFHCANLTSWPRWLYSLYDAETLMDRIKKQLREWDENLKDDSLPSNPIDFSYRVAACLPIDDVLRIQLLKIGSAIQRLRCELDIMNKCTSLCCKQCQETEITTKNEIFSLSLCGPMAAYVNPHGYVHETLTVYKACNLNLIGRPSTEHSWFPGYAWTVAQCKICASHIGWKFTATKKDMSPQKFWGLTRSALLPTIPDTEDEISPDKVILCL

[14] = biological target: T4, Protein cereblon/Protein deacetylase HDAC6; experiment: PROTAC activity at CRBN/HDAC6 in human MM1.S cells assessed as induction of degradation of HDAC6 by measuring maximum efficacy relative to control; assay type: cell-based
Target sequence in this assay (Q96SW2 whole entry, looked up): as the sequence (Q96SW2 whole entry) above
Target sequence in this assay (Q9UBN7 whole entry, looked up): as the sequence (Q9UBN7 whole entry) above

[15] = biological target: T4, Protein cereblon/Protein deacetylase HDAC6; experiment: PROTAC activity at CRBN/HDAC6 in human MINO cells assessed as HDAC6 degradation incubated for 18 hrs by immunoblot analysis; assay type: cell-based
Target sequence in this assay (Q9UBN7 whole entry): as above
Target sequence in this assay (Q96SW2 whole entry): as the sequence (Q96SW2 whole entry) above

[16] = biological target: T4, Protein cereblon/Protein deacetylase HDAC6; experiment: PROTAC activity at CRBN/HDAC6 in human JeKo-1 cells assessed as HDAC6 degradation incubated for 18 hrs by immunoblot analysis; assay type: cell-based
Target sequence in this assay (Q9UBN7 whole entry): as the sequence (Q9UBN7 whole entry) above
Target sequence in this assay (Q96SW2 whole entry): as the sequence (Q96SW2 whole entry) above

[17] = biological target: T4, Protein cereblon/Protein deacetylase HDAC6; experiment: PROTAC activity at CRBN/HDAC6 in human HUVEC cells assessed as HDAC6 degradation incubated for 18 hrs by immunoblot analysis; assay type: cell-based
Target sequence in this assay (Q9UBN7 whole entry): as the sequence (Q9UBN7 whole entry) above
Target sequence in this assay (Q96SW2 whole entry): as the sequence (Q96SW2 whole entry) above

[18] = biological target: T4, Protein cereblon/Protein deacetylase HDAC6; experiment: PROTAC activity at CRBN/HDAC6 in human MDA-MB-231 cells assessed as HDAC6 degradation incubated for 18 hrs by immunoblot analysis; assay type: cell-based
Target sequence in this assay (Q9UBN7 whole entry): as the sequence (Q9UBN7 whole entry) above
Target sequence in this assay (Q96SW2 whole entry): as the sequence (Q96SW2 whole entry) above

[19] = biological target: T4, Protein cereblon/Protein deacetylase HDAC6; experiment: PROTAC activity at CRBN/HDAC6 in human MM1.S cells assessed as HDAC6 degradation incubated for 18 hrs by immunoblot analysis; assay type: cell-based
Target sequence in this assay (Q9UBN7 whole entry): as the sequence (Q9UBN7 whole entry) above
Target sequence in this assay (Q96SW2 whole entry): as the sequence (Q96SW2 whole entry) above

[20] = biological target: T4, Protein cereblon/Protein deacetylase HDAC6; experiment: PROTAC activity at CRBN/HDAC6 in human MM1.S cells assessed as HDAC6 degradation by measuring maximum efficacy incubated for 18 hrs by immunoblot analysis relative to control; assay type: cell-based
Target sequence in this assay (Q96SW2 whole entry, looked up): as the sequence (Q96SW2 whole entry) above
Target sequence in this assay (Q9UBN7 whole entry, looked up): as the sequence (Q9UBN7 whole entry) above

[21] = biological target: T4, Protein cereblon/Protein deacetylase HDAC6; experiment: PROTAC activity at CRBN/HDAC6 in human MM1.S cells assessed as HDAC6 degradation; assay type: cell-based
[22] = biological target: T4, Protein cereblon/Protein deacetylase HDAC6; experiment: PROTAC activity at CRBN/HDAC6 in human HL-60 cells assessed as HDAC6 degradation; assay type: cell-based
[23] = biological target: T4, Protein cereblon/Protein deacetylase HDAC6; experiment: PROTAC activity at CRBN/HDAC6 in human HL-60 cells assessed as HDAC6 degradation by measuring maximum efficacy relative to control; assay type: cell-based
Target sequence in this assay (Q96SW2 whole entry, looked up): as the sequence (Q96SW2 whole entry) above
Target sequence in this assay (Q9UBN7 whole entry, looked up): as the sequence (Q9UBN7 whole entry) above

Programmed cell death protein 1/Programmed cell death 1 ligand 1, sequence (Q15116 whole entry): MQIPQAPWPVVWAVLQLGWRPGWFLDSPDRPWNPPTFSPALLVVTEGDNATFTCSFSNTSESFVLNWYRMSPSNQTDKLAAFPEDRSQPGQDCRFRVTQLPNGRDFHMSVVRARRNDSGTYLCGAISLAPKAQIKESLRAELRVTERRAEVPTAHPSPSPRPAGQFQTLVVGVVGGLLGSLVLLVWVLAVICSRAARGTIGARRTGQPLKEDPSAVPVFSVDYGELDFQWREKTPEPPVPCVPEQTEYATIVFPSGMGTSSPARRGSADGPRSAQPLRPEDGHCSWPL
Programmed cell death protein 1/Programmed cell death 1 ligand 1, sequence (Q9NZQ7 whole entry): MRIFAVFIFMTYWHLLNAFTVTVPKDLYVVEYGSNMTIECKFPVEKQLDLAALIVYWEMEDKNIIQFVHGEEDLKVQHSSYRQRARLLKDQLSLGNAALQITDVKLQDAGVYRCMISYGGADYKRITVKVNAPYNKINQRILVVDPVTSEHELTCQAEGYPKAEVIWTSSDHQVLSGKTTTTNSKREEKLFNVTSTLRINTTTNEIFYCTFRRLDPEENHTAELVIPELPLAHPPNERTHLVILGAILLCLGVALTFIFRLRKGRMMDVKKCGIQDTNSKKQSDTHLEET

SMILES: COc1cc(OCc2cccc(-c3ccccc3)c2C)cc(OC)c1CNCCCCCCC(=O)NO
IC50 [1]: 0.085 µM

SMILES: Cc1ncsc1-c1ccc(CNC(=O)[C@H]2C[C@H](O)CN2C(=O)[C@H](NC(=O)CCCCCCCCCCC(=O)Nc2ccc(C(=O)Nc3ccccc3N)cc2)C(C)(C)C)cc1
IC50 [2]: 16.8 µM | IC50 [3]: 16.8 µM | IC50 [4]: 16.8 µM | DC50 [5]: 1 µM | DC50 [6]: 1 µM | DC50 [7]: 1 µM

SMILES: COc1cc(OCc2cccc(-c3ccccc3)c2C)cc(OC)c1CN(C)CCCC(=O)NO
IC50 [1]: 0.104 µM

SMILES: Cc1c(COc2ccc(CNCCCCCC(=O)NO)c(F)c2)cccc1-c1ccccc1
IC50 [1]: 0.062 µM

SMILES: Cc1c(COc2ccc(CNCCC(=O)NO)c(F)c2)cccc1-c1ccccc1
IC50 [1]: 0.12 µM

SMILES: Cc1c(COc2ccc(CNCCC(=O)NO)c(OCc3cccc(C#N)c3)c2)cccc1-c1ccccc1
IC50 [1]: 0.082 µM

SMILES: Cc1ncsc1-c1ccc(CNC(=O)[C@H]2C[C@H](O)CN2C(=O)[C@H](NC(=O)CCn2cc(CCCOC(=O)NCc3ccc(C(=O)Nc4ccc(F)cc4N)cc3)nn2)C(C)(C)C)cc1
DC50 [10]: 2.84 µM | Emax [11]: 62% | Emax [12]: 62%

SMILES: CCCCN(Cc1ccc(C(=O)NO)cc1)C(=O)Nc1ccc(OCCCCCCCn2cc(CCCCCNc3cccc4c3C(=O)N(C3CCC(=O)NC3=O)C4=O)nn2)cc1 (stereo not drawn)
DC50 [15]: 0.0032 µM | DC50 [16]: 0.0032 µM | DC50 [17]: 0.0032 µM | DC50 [18]: 0.0032 µM | DC50 [19]: 0.0016 µM | Emax [20]: 86%

Other lines, results leading:

DC50 [8]: 0.042 µM | IC50 (MDA-MB-468): 0.052 µM
SMILES: CCCNNC(=O)c1ccc(-c2ccc(NC(=O)CCCCCCC(=O)N[C@H](C(=O)N3C[C@H](O)C[C@H]3C(=O)N[C@H](C)c3ccc(-c4scnc4C)cc3)C(C)(C)C)cc2)cc1

DC50 [9]: 0.25 µM
SMILES: COc1cc(C(=O)NO)ccc1NCc1ccc(OCc2cn(CCCCCC(=O)Nc3cccc4c3C(=O)N(C3CCC(=O)NC3=O)C4=O)nn2)cc1 (stereo not drawn)

DC50 [13]: 0.0016 µM | Emax [14]: 86%
SMILES: CCCCN(Cc1ccc(C(=O)NO)cc1)C(=O)Nc1ccc(NC(=O)CCCCCc2cn(CCOCCNc3cccc4c3C(=O)N(C3CCC(=O)NC3=O)C4=O)nn2)cc1 (stereo not drawn)

DC50 [21]: 0.0038 µM | DC50 [22]: 0.0194 µM | Emax [23]: 92.2%
SMILES: Cc1nc2cc(NC(=O)CCCCCCCNC(=O)COc3cccc4c3C(=O)N(C3CCC(=O)NC3=O)C4=O)ccc2n1Cc1ccc(C(=O)NO)cc1F (stereo not drawn)

Reference: ChEMBL document CHEMBL5512609, “HDAC-targeting epigenetic modulators for cancer immunotherapy” (Eur J Med Chem, 2024)
